Molecular target: PIK3CD (Human) (UniProt O00329)
Assay: Assessment of PIK3CD Kinase Activity (Scintillation Proximity Assay)

PIK3CD (Human), sequence (O00329 whole entry, looked up): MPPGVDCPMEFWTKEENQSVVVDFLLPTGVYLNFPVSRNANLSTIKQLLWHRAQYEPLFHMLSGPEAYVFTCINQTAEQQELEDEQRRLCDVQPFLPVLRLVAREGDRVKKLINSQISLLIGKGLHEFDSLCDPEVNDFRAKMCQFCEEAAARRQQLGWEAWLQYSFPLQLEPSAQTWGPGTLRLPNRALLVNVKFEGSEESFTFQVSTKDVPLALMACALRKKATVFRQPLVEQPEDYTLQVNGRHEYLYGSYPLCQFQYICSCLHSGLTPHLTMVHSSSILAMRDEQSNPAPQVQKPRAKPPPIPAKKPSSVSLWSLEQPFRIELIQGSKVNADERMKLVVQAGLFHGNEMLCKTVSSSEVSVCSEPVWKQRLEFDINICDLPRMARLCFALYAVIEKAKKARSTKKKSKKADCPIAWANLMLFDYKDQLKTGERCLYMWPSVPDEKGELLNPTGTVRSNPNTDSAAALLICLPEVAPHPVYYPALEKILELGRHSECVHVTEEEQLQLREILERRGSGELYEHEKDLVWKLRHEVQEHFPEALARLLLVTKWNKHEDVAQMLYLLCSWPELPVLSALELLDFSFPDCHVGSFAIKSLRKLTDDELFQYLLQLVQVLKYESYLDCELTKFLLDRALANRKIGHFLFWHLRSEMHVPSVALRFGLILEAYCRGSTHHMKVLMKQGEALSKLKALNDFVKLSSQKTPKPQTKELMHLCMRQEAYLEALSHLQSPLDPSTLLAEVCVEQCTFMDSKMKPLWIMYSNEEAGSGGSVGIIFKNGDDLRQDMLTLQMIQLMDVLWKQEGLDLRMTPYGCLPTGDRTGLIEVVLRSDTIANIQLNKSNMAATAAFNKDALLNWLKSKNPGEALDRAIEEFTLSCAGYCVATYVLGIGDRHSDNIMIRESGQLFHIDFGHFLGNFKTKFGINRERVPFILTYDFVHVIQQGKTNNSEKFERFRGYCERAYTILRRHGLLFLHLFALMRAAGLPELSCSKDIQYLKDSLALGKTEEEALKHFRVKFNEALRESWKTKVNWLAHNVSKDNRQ

Row | Structure (SMILES) | IC50
1 | COc1c(C(C)n2nc(C)c3c(N)ncnc32)cc(C)c(C#N)c1C1CN(C[C@H](C)O)C1 (some centres undefined) | ≤ 10 nM
2 | CCOc1c(C(C)n2nc(C)c3c(N)ncnc32)cc(Cl)c(C#N)c1C1CN(S(=O)(=O)CC)C1 (centres undefined) | ≤ 10 nM
3 | COc1c(C(C)n2nc(C)c3c(N)ncnc32)cc(Cl)c(C)c1-c1ccc(C(=O)N(C)C)c(F)c1 (centres undefined) | ≤ 10 nM
4 | CCOc1c(C(C)n2nc(C)c3c(N)ncnc32)cc(Cl)c(C)c1C1CN(C[C@H](C)O)C1 (some centres undefined) | ≤ 10 nM
5 | COc1c(C(C)n2nc(C)c3c(N)ncnc32)cc(Cl)c(C)c1C1CN(CC(C)(C)O)C1 (centres undefined) | ≤ 10 nM
6 | COc1c(C(C)n2nc(-c3cnn(C)c3)c3c(N)ncnc32)cc(Cl)c(C)c1C1CN(CC#N)C1 (centres undefined) | ≤ 10 nM
7 | CCOc1c(C(C)n2nc(C)c3c(N)ncnc32)cc(Cl)c(C)c1-c1ccc(C(=O)N(C)C)cn1 (centres undefined) | ≤ 10 nM
8 | CCOc1c(C(C)n2nc(C)c3c(N)ncnc32)cc(C)c(C#N)c1N1CCCC1 (centres undefined) | ≤ 10 nM
9 | COc1c(C(C)n2nc(C(F)F)c3c(N)ncnc32)cc(C#N)c(C)c1C1CN(CC(C)(C)O)C1 (centres undefined) | ≤ 10 nM
10 | CCOc1c(C(C)n2nc(-c3ccc(C(=O)N(C)C)nc3)c3c(N)ncnc32)cc(Cl)c(C)c1-c1ccc(C(=O)N(C)C)nc1 (centres undefined) | 10 to 50 nM
11 | COc1c(C(C)n2nc(C)c3c(N)ncnc32)cc(Cl)c(C)c1-c1cncc(C(=O)N(C)CCO)c1 (centres undefined) | ≤ 10 nM
12 | CNC(=O)c1ccc(-c2c(C)c(Cl)cc(C(C)n3ccc(=O)c4c(N)ncnc43)c2OC)cn1 (centres undefined) | ≤ 10 nM
13 | CCOc1c(C(C)n2nc(C)c3c(N)ncnc32)cc(Cl)c(C)c1-c1ccnc(C(=O)N(C)C)c1 (centres undefined) | ≤ 10 nM
14 | CCOc1c(C(C)n2nc(C#N)c3c(N)ncnc32)cc(Cl)c(C)c1-c1ccc(C(=O)N(C)C)nc1 (centres undefined) | 10 to 50 nM
15 | COc1c(C(C)n2nc(C)c3c(N)ncnc32)cc(Cl)c(C)c1-c1cncc(C(=O)N(C)C)c1 (centres undefined) | ≤ 10 nM
16 | COc1c(C(C)n2nc(C)c3c(N)ncnc32)cc(Cl)c(C)c1-c1cncc(C(=O)N(C)CCN)c1 (centres undefined) | ≤ 10 nM
17 | COc1c([C@H](C)n2nc(C)c3c(N)ncnc32)cc(Cl)c(C#N)c1C1CN(C[C@@H](C)O)C1 | ≤ 10 nM
18 | CCOc1c(C(C)n2nc(C)c3c(N)ncnc32)cc(Cl)c(C#N)c1C1CN(C2CCOCC2)C1 (centres undefined) | ≤ 10 nM
19 | CCOc1c(C(C)n2nc(-c3cncc(C#N)c3)c3c(N)ncnc32)cc(Cl)c(C)c1-c1ccc(C(=O)N(C)C)nc1 (centres undefined) | ≤ 10 nM
20 | CCOc1c(C(C)n2nc(C)c3c(N)ncnc32)cc(Cl)c(C#N)c1C1CNC(=O)C1 (centres undefined) | ≤ 10 nM
21 | COc1c(C(C)n2nc(C)c3c(N)ncnc32)cc(Cl)c(C#N)c1C1CN(CC2CCOC2)C1 (centres undefined) | ≤ 10 nM
22 | CCOc1c(C(C)n2nc(C)c3c(N)ncnc32)cc(Cl)c(C#N)c1-c1ccc(C(C)(C)O)nc1 (centres undefined) | ≤ 10 nM

Row | Structure (SMILES) | IC50
23 | COc1c(C(C)n2nc(C)c3c(N)ncnc32)cc(Cl)c(C)c1C1CN(C(=O)c2cnn(C)c2)C1 (centres undefined) | ≤ 10 nM
24 | CCOC(=O)N1CC(c2c(C#N)c(Cl)cc(C(C)n3nc(C)c4c(N)ncnc43)c2OC)C1 (centres undefined) | ≤ 10 nM
25 | CCOc1c(C(C)n2nc(C)c3c(N)ncnc32)cc(Cl)c(C)c1C1CN(C(=O)c2cnn(C)c2)C1 (centres undefined) | ≤ 10 nM
26 | CCOc1c(C(C)n2nc(C)c3c(N)ncnc32)cc(C)c(C#N)c1C1CN(CC(C)(C)O)C1 (centres undefined) | ≤ 10 nM
27 | COc1c(C(C)n2ccc(=O)c3c(N)ncnc32)cc(Cl)c(C)c1-c1cncc(C#N)c1 (centres undefined) | ≤ 10 nM
28 | COc1c(C(C)n2nc(C)c3c(N)ncnc32)cc(Cl)c(C)c1-c1cnn(CCN(C)C)c1 (centres undefined) | ≤ 10 nM
29 | CCOc1c(C(C)n2nc(C)c3c(N)ncnc32)cc(Cl)c(C#N)c1C1CN(C)C1 (centres undefined) | ≤ 10 nM
30 | COc1c(C(C)n2nc(C)c3c(N)ncnc32)cc(Cl)c(C)c1-c1ccc(N)nc1 (centres undefined) | ≤ 10 nM
31 | COc1c(C(C)n2nc(C)c3c(N)ncnc32)cc(Cl)c(C)c1-c1cnc(N)nc1 (centres undefined) | ≤ 10 nM
32 | COc1c(C(C)n2nc(C)c3c(N)ncnc32)cc(Cl)c(C)c1C1CN(CC(N)=O)C1 (centres undefined) | ≤ 10 nM
33 | CCOc1c(C(C)n2nc(C)c3c(N)ncnc32)cc(Cl)c(C#N)c1N1CC(COC)C1 (centres undefined) | ≤ 10 nM
34 | COc1c(C(C)n2nc(C)c3c(N)ncnc32)cc(Cl)c(C)c1-c1cncc(C(=O)N2CC(C#N)C2)c1 (centres undefined) | ≤ 10 nM
35 | COc1c(C(C)n2nc(C)c3c(N)ncnc32)cc(Cl)c(C#N)c1C1CN(C2CCOCC2)C1 (centres undefined) | ≤ 10 nM
36 | COc1c(C(C)n2nc(C)c3c(N)ncnc32)cc(Cl)c(C#N)c1C1CN(S(=O)(=O)C(C)C)C1 (centres undefined) | ≤ 10 nM
37 | CCOc1c(C(C)n2nc(C)c3c(N)ncnc32)cc(Cl)c(C#N)c1C1CN(C(=O)CC)C1 (centres undefined) | ≤ 10 nM
38 | COc1c(C(C)n2nc(C)c3c(N)ncnc32)cc(Cl)c(C)c1C1CN(C(C)C)C1 (centres undefined) | ≤ 10 nM
39 | CCOc1c(C(C)n2nc(C)c3c(N)ncnc32)cc(Cl)c(C#N)c1C1CN(S(C)(=O)=O)C1 (centres undefined) | ≤ 10 nM
40 | CCOc1c(C(C)n2ccc(=O)c3c(N)ncnc32)cc(Cl)c(C)c1C1CN(C(C)C)C1 (centres undefined) | ≤ 10 nM
41 | CCOc1c(C(C)n2nc(C)c3c(N)ncnc32)cc(Cl)c(C#N)c1C1CN(CC2CCOC2)C1 (centres undefined) | ≤ 10 nM
42 | COc1c(C(C)n2nc(C)c3c(N)ncnc32)cc(Cl)c(C)c1-c1cnn(CC(=O)N(C)C)c1 (centres undefined) | ≤ 10 nM
43 | CCOc1c(C(C)n2nc(C)c3c(N)ncnc32)cc(Cl)c(C#N)c1C1CN(CC2CC2)C1 (centres undefined) | ≤ 10 nM
44 | COCCN1CC(c2c(C)c(Cl)cc(C(C)n3nc(C)c4c(N)ncnc43)c2OC)C1 (centres undefined) | ≤ 10 nM

Source: the Kinase Knowledgebase extract (Sharma et al. 2016)
